According to patent US12564609B2, “Hematopoietic stem cell engraftment with a combination of agents” (The Board of Trustees of the Leland Stanford Junior …, priority 2020, dated 2026):

Experiments:
[1] = patients, subcutaneous administration of 75 mg/m^2 AZA, plasma; cited from earlier work
[2] = test system: hematopoietic stem and progenitor cells; assay: In vivo depletion of blood, spleen and bone marrow cells by AZA; parameters: species or system C57BL/6 mice; details: AZA 5 mg/kg/d for 5 days
Method: A. Schematic of treatment protocol. C57BL/6 mice were injected with 5-Azacytidine (AZA) in dose 5 mg/kg/d for 5 consecutive days. Peripheral blood, bone marrow (BM) and spleen were analyzed on days 6, 10 and 15 and 20 after start AZA treatment. B. Peripheral blood cell counts in untreated mice as compared to AZA-treated mice at day 6, 10 and 20 following AZA treatment. Hemoglobin (Hb); white blood cells (WBC). C. Total live cells in bone marrow (BM) and spleen of untreated mice and AZA-treated mice at day 6, 10, 15 and 20 after start AZA treatment. D. Hematoxylin and eosin staining of bone marrow section from mouse femur at day 6 after treatment with AZA 5 mg/kg/d for 5 days as compared to untreated control. Magnification 100 μm. E. Representative flow cytometric analysis of the hematopoietic stem and progenitor cell (HSPC) compartment in the BM of untreated and AZA-treated mice at day 6, 10, 15 and 20. […] Lin^−Sca1^+ c-Kit^+ cells (LSK), multipotent progenitors (MPP), long-term hematopoietic stem cells (LT-HSC), short-term HSC (ST-HSC). F. Absolute number of the different HSPC compartments at day 6, 10, 15 and 20 after start of AZA treatment as compared to untreated control mice. Lin^−Sca1^+c-Kit^+ (LSK); LSKCD150^+CD48^− (LT-HSC), LSKCD150^−CD48^− (ST-HSC), LSKCD150^+CD48^+ (MPP2), LSKCD150^−CD48^+Flt3^− (MPP3), LSKCD150^−CD48^+Flt3^+ (MPP4). Data in (B), (C) and (F) represent mean±SD (n=4 per group per timepoint). Statistics were calculated with Mann-Whitney test (*P<0.05).
Mice. C57BL/6 (B6) mice (H-2^b, Thy1.1, CD45.1/CD45.2) were recipients and B6 mice (H-2^b, Thy1.1, CD45.1) were donors for the congenic transplant experiments. BALB.B (H-2^b, Thy1.2, CD45.2) mice were used as recipients and B6 mice (H-2^b, Thy1.1, CD45.1) as donors for […] (allogeneic) transplant experiments. Recipients were >8 weeks old and donors were 8-12 weeks old at timepoint of transplantation. B6 (H-2^b, Thy1.1, CD45.2) mice were used for in vivo depletion studies. Mice were bred and maintained under pathogen free conditions at the Stanford University Research Animal Facility. All experiments were performed under a protocol approved by the Stanford Administrative Panel on Laboratory Animal Care.
In vivo administration of therapeutic agents and cytokines. Anti-mouse CD117 mAbs, clone ACK2 (BioXcell) and 2B8 (BioXcell), were injected retroorbital as a single dose of 500 μg following intraperitoneal administration of Diphenhydramine (Benadryl). Anti CD4 (clone GK1.5, BioXcell) and anti-CD8 (clone YTS169.4, BioXcell) were administered intraperitoneally at a dose of 100 μg in 100 μl phosphate-buffered saline (PBS). […] Before each injection, AZA was thawed for 10-15 min at room temperature (RT), resuspended in PBS and administered intraperitoneally in 100 μl. Recombinant murine SCF (PeproTech), dissolved in deionized water to concentration of 10 μg/ml, was injected intraperitoneally at the amount of 1 μg/day.
Flow cytometry. Cells were stained for surface markers and incubated at RT in the dark for 20 min.
Bone marrow and spleen cell preparation for analysis. Mice were euthanized and bone marrow (hips, femurs, tibia, spine) and spleen were harvested. Bones were crushed in PBS+2% bovine calf serum (BCS) into single cell suspensions and filtered through 70-μm filter (Falcon). Spleens were mashed direct in 70-μm filter (Falcon). RBC lysis was performed with ACK lysis buffer for 10 min at RT. Cells were rinsed, filtered again and counted on a Countess automated cell counter (Invitrogen).
Complete blood cell count. 20 μl of whole blood was collected via the tail vein and complete blood counts (CBC) were conducted using Heska HemaTrue Veterinary Hematology Analyzer (Heska).

## Nc1ncn([C@@H]2O[C@H](CO)[C@@H](O)[C@H]2O)c(=O)n1 [AZA, 5-Azacytidine]
[1]
  Cmax: 750 ± 403.3 ng/mL
[2]
  rebound of splenic myeloid cells to normal levels: ≤ 10 days
  recovery of BM B cells: > 15 days
  recovery of all blood subsets to normal range values: ≤ 20 days
  recovery of overall BM cellularity: ≤ 10 days
  recovery of the ST-HSC fraction in BM: > 20 days
[2]; BM
  nadir of MPP4 and common lymphoid progenitors (CLP): 10 days
  recovery of CMP and GMP: > 15 days
  recovery of MEP: ≤ 10 days
  recovery of MPP4 and CLP: ≤ 20 days
[2]; by day 6
  myeloid-biased multipotent progenitors MPP2 and MPP3 after BM depletion of HSC: rapid expansion
[2]; by day 6, BM
  depletion of common myeloid progenitors (CMP): > 25 fold
  depletion of granulocyte-macrophage progenitors (GMP): > 18 fold
  depletion of megakaryocyte-erythrocyte progenitors (MEP): > 11 fold
[2]; day 6
  reduction of LT-HSC in BM at nadir: 15 fold
  reduction of ST-HSC in BM at nadir: 24 fold
  splenic myeloid cells: significantly reduced
[2]; day 6, p value=0.0286
  overall BM cellularity decreased: 80 % from baseline
[2]; day 10
  maximal B cell (CD19) depletion in BM: > 30 fold
[2]; days 6, 10, 15 and 20
  B-cell development in the bone marrow (Hardy fractions): maturation block at Fraction D and E
[2]; peripheral blood
  reduction of granulocytes in blood: ~4 fold
[2]; days after initiation of AZA
  day of lowest blood values (Hb, WBC, granulocytes, lymphocytes, monocytes): 10 days
